# Reference: patent US20010005752A1, “Fluorescent dyes (AIDA) for solid phase and solution phase screening” (priority 1998, published 2001)
# How the values were obtained:
# Type in all cases: physicochemical
# [1] = UV-Vis absorption spectroscopy; conditions: for Absorption λmax / ε (at absorption λmax): acetonitrile/2% DMSO
# Description: UV-Vis absorption spectroscopy is performed on a Cary 1E spectrophotometer. […]
# […] […] From each stock solution, 5 dilutions with concentrations of 2.5 μm, 10 μM, 17 μM, 25 μm and 35 μM are made. UV-spectra of each dilution are recorded from 200 to 400 nm, using a quarz cuvette with a pathlength of 1 cm. […] A linear fit is carried out for each series of measurements. The extinction coefficient ε at 337 nm is given by the slope of the linear regression.
# [2] = Steady-state fluorescence spectroscopy (excitation and emission spectra); conditions: for Emission range in parenthesis / Emission λmax / Excitation range in parenthesis / Excitation λmax: acetonitrile/2% DMSO
# Description: Steady-state fluorescence measurements are performed on a SLM 8000C spectro-fluorometer equipped with JD490 photomultipliers and a 450 W Xenon Arclamp (SLM Instruments, Urbana, Ill.).
# […] Spectral bandwidths are set to 1 and 4 nm for excitation and emission, respectively. Spectra are recorded in single photon counting mode. Changes in lamp intensity are corrected with a quantum counter in the reference channel, measured in slow mode. Gain is set to x 100 with a high voltage (HV) of 640 V. Integration time is 2 seconds. For excitation spectra measurements, the emission wavelength is set to 397 nm and the sample is excited from 200 to 400 nm. For recording emission spectra, the sample is excited at 342 nm and the emission is recorded from 350 to 540 nm. The data are averaged over two scans.
# [3] = Calculation of R0 (Förster distance) between 4e and NATA; conditions: 4e acceptor, NATA donor, THF
# Description: The emission spectrum of NATA is measured at a concentration of 15 μM in THF, using a 750 μl quartz cuvette with an optical pathlength of 10 mm. Measuring mode is single photon counting. Changes in lamp intensity are corrected using a quantum counter in the reference channel. The gain is set at x 100, the high voltage applied was 640 V and the integration time is 2 seconds. The fluorescence emission is corrected for photometric accuracy of the system by multiplication with correction factors obtained by standard lamp calibration. Slit widths are set at 1 nm and 4 nm for excitation and emission, respectively. […] R0 is calculated using the formula R0=(9.97×10^3)(Jκ^2η^-4 θNATA)^1/6 Å where κ^2 is an orientation factor of the relative orientation in space of the transition dipoles of the donor and acceptor chromophores. […] J is the spectral overlap integral which can be approximated from […](λ)λ^4Δλ (2) where FNATA is the corrected fluorescence emission of the donor, the sum normalized to unity, ε4e is the extinction coefficient of the acceptor at wavelength λ, and DS is the incremental detection range.
# [4] = Picosecond time-resolved fluorescence spectroscopy (fluorescence lifetime); conditions: 25 μM in THF, emission 400 nm
# Description: Picosecond time-resolved fluorescence measurements are recorded according to the single photon counting technique [Lakowicz, 1983 p 52-93, 112-153, 156-185]. An Ar^+-pumped Ti:Sapphire laser (model MIRA 900, Coherent, Santa Clara, USA) provided under mode-locked conditions ultrashort pulses (FWHM=150 fs) with a frequency of 75 MHz. To reduce the repetition rate to 4.7 MHz, a pulse picker (model 9200, Coherent, Santa Clara, USA) is inserted into the beam. […] Fluorescence photons are collected in a Spex 1681 single grating monochromator (Spex, Edison, USA) and detected with the Hamamatsu R3809U microchannel plate (Hamamatsu, Shimokanzo, Japan). […] The voltage values which correspond to the time passed between excitation and emission of a fluorescence photon in a single experiment are stored in the Spectrum Master 921 (Ortec, Oak Ridge, USA) which is connected to the multichannel emulation program Maestro (Ortec, Oak Ridge, USA). […]
# where A represents the background noise of the experiment, bi represent the pre-exponential terms of the according fluorescence lifetimes τi, and δt is an optional temporal shift term to compensate for shifts of the instrument response. […]
# The time resolved decay of 4e is determined at a concentration of 25 μM in THF. Excitation is from 350 nm 380 nm, fluorescence emission is detected at 400 nm with slit widths set to 0.5 nm. […]
# [5] = Quantum yield determination with chininsulfate as standard; conditions: 25 μM in THF
# Description: The quantum yield of 4e is determined using chininsulfate as a standard [Melhuish, 1961].
# The point of intersection between the UV spectra of 4e and chininsulfate (CS) is determined by measurements of a solution of the two substances on a Cary 1E spectrophotometer. Concentrations were 25 μM in THF for 4e and 50 mM in 1N H2SO4 for CS. Spectra are recorded from 260 nm to 380 nm using a quartz cuvette with an optical pathlength of 10 mm, and blank corrected by subtracting the solvent absorption. The point of intersection of the two resulting UV spectra is determined to be at 348.3 nm, corresponding to 352.8 nm on the SLM-8000 C fluorometer due to monochromator shifts. The fluorescence emission spectra of 4e and CS are recorded using the same solutions as for the UV-measurements in single photon counting mode. Lamp intensity changes are corrected with a quantum counter in the reference channel, measured in slow mode. Gain is set at x 100, high voltage applied was 830 V. Integration time was 0.5 seconds.
# Spectral bandwidths are set at 1 nm for excitation, 2 nm and 4 nm for emission.
# For the recording of the emission spectra, excitation is set to 352.8 and emission is monitored from 360 to 550 nm for IAE and 360 to 650 nm for CS.
Absorption λmax [1] [nm],ε (at absorption λmax) [1] [M⁻¹ cm⁻¹],Emission range in parenthesis [2],Emission λmax [2] [nm],Excitation range in parenthesis [2],Excitation λmax [2] [nm],"fluorescence emission (relative to 1,3-diaryl-1H-indazoles) [2]",R0 (Förster distance) of the dye pair with NATA [3],fluorescence lifetime (mono-exponential decay) [4] [nsec],relative amplitude of lifetime component [4] [%],absorption maximum ([1]; THF) [nm],"absorption coefficient ε at 337 nm ([1]; THF, 337 nm) [M⁻¹ cm⁻¹]","maximal emission intensity (wavelength) ([2]; 1 μM in THF, excitation at 342 nm) [nm]",Stoke shift ([2]; THF),quantum yield [5],Compound,photophysical and photochemical stability [2]
358,24967,490-700 nm,565,340-420 nm,370,,,,,,,,,,Cc1ccc2c(-c3ccc([N+](=O)[O-])cc3)nn(-c3ccc(C(=O)O)cc3)c2c1 [4j],
361,31261,470-670 nm,551,320-420 nm,374,,,,,,,,,,O=C(O)c1ccc(-c2nn(-c3ccc([N+](=O)[O-])cc3)c3ccccc23)cc1 [4i],
326,17252,450-620 nm,527,310-360 nm,331,,,,,,,,,,"NC(=O)c1ccc(-c2nn(-c3ccc(C(=O)O)cc3)c3ccc([N+](=O)[O-])cc23)cc1 [4l, 4-[3-(4-carbamoyl-phenyl)-5-nitro-1H-indazol-1-yl]-benzoic Acid]",
328,22622,450-620 nm,524,320-360 nm,331,,,,,,,,,,"O=C(O)c1ccc(-c2nn(-c3ccc(C(=O)O)cc3)c3ccc([N+](=O)[O-])cc23)cc1 [4k, 4-[3-(4-carboxy-phenyl)-5-nitro-1H-indazol-1-yl]-benzoic Acid]",

# Continued, molecule first:
Compound,Absorption λmax [1] [nm],ε (at absorption λmax) [1] [M⁻¹ cm⁻¹],Emission range in parenthesis [2],Emission λmax [2] [nm],Excitation range in parenthesis [2],Excitation λmax [2] [nm],"fluorescence emission (relative to 1,3-diaryl-1H-indazoles) [2]",R0 (Förster distance) of the dye pair with NATA [3],fluorescence lifetime (mono-exponential decay) [4] [nsec],relative amplitude of lifetime component [4] [%],absorption maximum ([1]; THF) [nm],"absorption coefficient ε at 337 nm ([1]; THF, 337 nm) [M⁻¹ cm⁻¹]","maximal emission intensity (wavelength) ([2]; 1 μM in THF, excitation at 342 nm) [nm]",Stoke shift ([2]; THF),quantum yield [5],photophysical and photochemical stability [2]
O=C(O)c1ccc(-n2nc(-c3ccc([N+](=O)[O-])cc3)c3ccccc32)cc1 [4f],354,25482,470-670 nm,554,320-400 nm,368,,,,,,,,,,
"O=C(O)c1ccc(-n2nc(-c3ccccc3)c3ccc4ccccc4c32)cc1 [4-(3-phenyl-benzo[g]indazol-1-yl)-benzoic acid, reference compound]",,,,,,,dramatically reduced,,,,,,,,,
"O=C(O)c1ccc(-c2nn(-c3ccc(C(=O)O)cc3)c3ccccc23)cc1 [4b, 1,3-Bis-(4-carboxyphenyl)-1H-indazole]",334,29152,360-500 nm,396,300-360 nm,335,,,,,,,,,,
COC(=O)c1ccc(-c2nn(-c3ccc(C(=O)O)cc3)c3ccccc23)cc1 [4d],334,33114,360-500 nm,396,300-360 nm,336,,,,,,,,,,
O=C(O)c1ccc(-n2nc(-c3ccccc3)c3ccccc32)cc1 [4a],328,22569,360-450 nm,396,300-340 nm,328,,,,,,,,,,
O=C(O)c1ccc(-n2nc(-c3ccc(Cl)cc3)c3ccc(Cl)cc32)cc1 [4g],328,29157,350-450 nm,364,310-350 nm,328,,,,,,,,,,
"NC(=O)c1ccc(-c2nn(-c3ccc(C(=O)O)cc3)c3ccccc23)cc1 [4c, 4-[3-(4-carbamoyl-phenyl)-1H-indazol-1-yl]-benzoic acid]",332,30665,360-500 nm,393,300-360 nm,334,,,,,,,,,,
"C=CCOC(=O)c1ccc(-c2nn(-c3ccc(C(=O)O)cc3)c3ccccc23)cc1 [4e, 4-[3-(4-allyloxycarbonylphenyl)-1H-indazol-1-yl]-benzoic acid]",335,34134,360-480 nm,398,310-360 nm,337,,25.2 - 26.3 Å,1.055±0.117,99.73,342,29926,403,about 60 nm,0.591,photophysically and photochemically stable
COc1ccc(-c2nn(-c3ccc(C(=O)O)cc3)c3cc(OC)ccc23)cc1 [4h],327,27650,370-600 nm,439,300-350 nm,330,,,,,,,,,,
